Measured values from patent publication US20190125715A1, “CDDO-Me AS A THERAPY FOR LUPUS” (priority 2014, published 2019).

Legend:
B6.Sle1.Sle3 mice = assay: Preventive experiment in B6.Sle1.Sle3 mice: spleen weight, splenic cellularity and lymphocyte subsets by flow cytometry; format: in vivo, mouse; set-up: Splenic B cells: B220+, AA4.1+ (mature) / Splenic B cells: Follicular B cells / Splenic B cells: Marginal zone B cells / Splenic B cells: B1a cells / Splenic B cells: B220+, AA4.1+ (immature) / Splenic B cells: T1 immature / Splenic B cells: T2 immature / Splenic B cells: T3 immature / Splenic T cells: CD4 T cells / Splenic T cells: CD8 T cells: unit not given here
Description: Flow cytometric analysis and antibodies: Splenocytes were depleted of red blood cells using a lysis buffer (containing 0.15M NH4Cl, 10 mM KHCO3, and 0.1 mM Na2EDTA, pH 7.2), and single-cell suspensions were prepared for flow cytometric analysis. Flow cytometric analysis was performed as described previously (17).
In vivo experiments: In the first preventive experiment, CDDO-Me was diluted in sesame oil. Two-month-old B6.Sle1.Sle3 mice (n=20) received CDDO-Me at a final dose of 3 mg/kg or vehicle alone (i.e., placebo), by oral gavage 3 times per week for a period of 2 months. In a confirmatory preventive study, 2-month-old MRL/lpr mice (n=8 per group) were orally administered CDDO-Me (3 mg/kg), sesame oil, water, or dexamethasone (1 mg/kg) 3 times a week for 2 months. Serum and 24-hour urine samples were obtained on days 0, 14, and 60. All serum samples were subjected to ELISA for autoantibodies, and urine samples were assayed for total protein as previously described (17,18). On day 60, when mice were killed, the cellular composition of the spleen and lymph nodes was determined by flow cytometry, and the kidneys were examined for pathology, as described below. In addition, the expression of various signaling molecules in the spleens and kidneys of the treated mice was assayed by Western blotting, as described above. In the treatment experiment, 7-month-old NZM2410 mice with proteinuria (n=4-7 per group) were treated with CDDO-Me (3 mg/kg) or placebo by oral gavage 5 times per week for a period of 2 months. Proteinuria, autoantibody production, spleen weight, and survival rates were assessed.
To address this, 2-month-old female B6.Sle1.Sle3 mice were treated for 60 days with CDDO-Me or placebo, and then spleen size and cellularity were assessed in both groups.

[1] = mouse, in vivo
From the text: Since this was a relatively long-term study, and since CDDO-Me cripples multiple signaling axes, one concern can be potential side effects. After 60 days of drug administration (either in the preventive or treatment experiment), body weights of mice from both the CDDO-Me group and the placebo group were similar. […] In addition, liver function was monitored by assaying aspartate aminotransferase (AST); however, there were no significant changes in the CDDO-Me-treated group (AST activity 75.7±6.5 units/liter) compared to the placebo group (74.0±5.8 units/liter).

[2] = absolute cell number in spleen, 4-month-old mice, 60 days treatment, mean ± SEM, n=10

all blood cell counts (WBC, RBC, hemoglobin, hematocrit, MCV, MCH, MCHC, RDW, MPV, neutrophils, lymphocytes, eosinophils) versus placebo group [1]: remained similar | platelet counts versus placebo group [1]: comparable
Compound: COC(=O)[C@]12CCC(C)(C)C[C@H]1[C@H]1C(=O)C=C3[C@@]4(C)C=C(C#N)C(=O)C(C)(C)[C@@H]4CC[C@@]3(C)[C@]1(C)CC2 [CDDO-Me, methyl-2-cyano-3,12-dioxooleana-1,9-dien-28-oate]
Total spleen cell count (B6.Sle1.Sle3 mice; 4-month-old B6.Sle1.Sle3 mice after 60 days CDDO-Me 3 mg/kg oral gavage 3 times per week, mean ± SEM, n=10): 89.1 ± 2.3 10^6 | percentage of CD8+ T cells among splenic T cells (B6.Sle1.Sle3 mice; 60 days treatment, mean±SEM, placebo 6.8±1.1%, P=0.023): 9.73±0.4% | percentage of CD4+ T cells among splenic T cells (B6.Sle1.Sle3 mice; 60 days treatment, mean±SEM, placebo 15.1±1.2%, P=0.021): 12.1±0.35% | B cell activation, surface CD86 expression (B6.Sle1.Sle3 mice; 60 days treatment, placebo 8.72±0.45, P<0.002): 6.48±0.42 mean fluorescence intensity units | absolute number of total splenic CD4+ T cells (B6.Sle1.Sle3 mice; 60 days treatment, placebo 39.0±2.0 million, P<0.0001): 18.7±3.8 million | Splenic B cells: B1a cells (B6.Sle1.Sle3 mice; [2]): 4.0 ± 0.3 | Splenic B cells: B220+, AA4.1+ (immature) (B6.Sle1.Sle3 mice; [2]): 10.4 ± 1.1 | Splenic B cells: B220+, AA4.1+ (mature) (B6.Sle1.Sle3 mice; [2]): 45.3 ± 3.2 | Splenic B cells: Follicular B cells (B6.Sle1.Sle3 mice; [2]): 30.9 ± 1.6 | Splenic B cells: Marginal zone B cells (B6.Sle1.Sle3 mice; [2]): 4.0 ± 0.2 | Splenic B cells: T1 immature (B6.Sle1.Sle3 mice; [2]): 1.0 ± 0.1 | Splenic B cells: T2 immature (B6.Sle1.Sle3 mice; [2]): 3.1 ± 0.2 | Splenic B cells: T3 immature (B6.Sle1.Sle3 mice; [2]): 4.0 ± 0.2 | Splenic T cells: CD4 T cells (B6.Sle1.Sle3 mice; [2]): 18.7 ± 3.8 | Splenic T cells: CD8 T cells (B6.Sle1.Sle3 mice; [2]): 8.6 ± 2.4 | Splenic T cells: CD69+/CD4 T cells (B6.Sle1.Sle3 mice; [2]): 5.1 ± 0.6 | Splenic T cells: CD69+/CD8 T cells (B6.Sle1.Sle3 mice; [2]): 0.6 ± 0.1 | decrease of overall spleen weights compared to the placebo-treated group (B6.Sle1.Sle3 mice; female B6.Sle1.Sle3 mice treated for 60 days): ~50% | AST activity (liver function) [1]: 75.7±6.5 units/liter
